These results are taken from ChEMBL document CHEMBL1158292, “Progress in the discovery of biosynthetic anticancer drugs” (1996).

Holding throughout (format): functional
The subject of assay [1] is P388. Put plainly: Antineoplastic activity against mouse P388 cells at 100 mg/kg relative to control.
For another assay, the system named is B16. Put plainly: In vivo antineoplastic activity against mouse B16 cells at 11 ug/kg.
Assay [2] relates to P388. Put plainly: Antineoplastic activity against mouse P388 cells at 32 mg/kg relative to control.
For assay [3], the system named is P388. Briefly: Antineoplastic activity against mouse P388 cells.
For assay [4], the system named is P388. Briefly: Antineoplastic activity against mouse P388 cells at 3 mg/kg relative to control.
The test system of assay [5] is P388. Put plainly: Antineoplastic activity against mouse P388 cells at 12.5 mg/kg relative to control.
A short description of assay [6]: Growth inhibition of human renal cancer cells at 10^-10 M. Conditions: Cancer cell lines, read-out: GI.
Assay [7] can be described thus: Growth inhibition of human colon cancer cells at 10^-10 M. Conditions: Cancer cell lines, read-out: GI.
Assay [8] in a line: Growth inhibition of human lung cancer cells at 10^-10 M. Conditions: Cancer cell lines, read-out: GI.
The subject of another assay is OVCAR-3. Put plainly: In vivo antineoplastic activity against human OVCAR-3 cells at 25 ug/kg.
The nature of assay [9]: Growth inhibition of human ovarian cancer cells at 10^-10 M. Conditions: Cancer cell lines, read-out: GI.
The nature of assay [10]: Growth inhibition of human breast cancer cells at 10^-10 M. Conditions: Cancer cell lines, read-out: GI.

Compound `NCCS(=O)(=O)O` [TAURINE] returned a T/C in the assay on P388 [1] of 123. `CC[C@H](C)[C@@H]([C@@H](CC(=O)N1CCC[C@H]1[C@H](OC)[C@@H](C)C(=O)N[C@@H](Cc1ccccc1)c1nccs1)OC)N(C)C(=O)[C@@H](NC(=O)[C@H](C(C)C)N(C)C)C(C)C` [DOLASTATIN-10] displayed an Activity in the assay on B16 of 80%. Take `C=C1C(=O)O[C@@H]2C(=O)[C@@H](C)[C@@H]3C=CC(=O)[C@@]3(C)[C@@H](OC(=O)/C(C)=C\C)[C@H]12` [MULTISTATIN]: the T/C in the assay on P388 [2] turned out to be 131.

Compound `C[C@@H]1[C@]2(O[C@H]3C=C4[C@@H]5CC[C@H]6Cc7nc8c(nc7C[C@]6(C)[C@H]5C[C@@H](O)[C@]4(C)[C@]31O)C[C@@H]1CC[C@H]3C4=CC[C@@H]5[C@H](C)[C@@]6(OC[C@]45C(=O)C[C@@H]3[C@@]1(C)C8)OC(C)(C)C[C@H]6O)O[C@](C)(CO)C[C@H]2O` [CEPHALOSTATIN 1] returned an ED50 in the assay on P388 [3] of 1 ×10⁻⁹ ug/ml. With `C=C1C(=O)O[C@@H]2C[C@@H](C)[C@@H]3C=CC(=O)[C@@]3(C)[C@@H](O)[C@H]12` [HELENALIN], the T/C in the assay on P388 [4] is on record as 220. `C=C1C(=O)O[C@@H]2[C@H](O)[C@@H](C)[C@@H]3C=CC(=O)[C@@]3(C)[C@@H](OC(=O)/C(C)=C\C)[C@H]12` [MULTIGILIN]: in the assay with P388 [5], the T/C is 164. Regarding `C=C(Cl)/C=C/[C@H](O)CC(=C)C[C@H]1O[C@@H]2[C@H](C)[C@@H](OC(=O)C[C@@H]3C[C@@H](OC(C)=O)C[C@]4(C[C@](C)(O)C[C@@H](CC(=C)[C@H](C)[C@@H](OC(C)=O)[C@H](C)C(=O)C[C@H]5C[C@@H](OC)C[C@]6(C[C@H](O)C[C@@H](/C=C\CCC[C@@H]7O[C@@](O)(C[C@@H](O)[C@@H]7C)[C@H]2O)O6)O5)O4)O3)[C@@H]1O`, the inhibition of growth at 0.0001 µM in [6], in [7], in assay [8], in [9] and in [10] was 50% in each case. For the same compound, the Activity in the assay on OVCAR-3 is recorded as 70%.
